Starred links: 1 amine or outer side, 2 acyl side, 3 side chain; linkers in the order of their positions; H or OH if unused. Positions of bridges follow the written chain, without caps; N, C: chain ends. Non-standard residues stand in square brackets, D forms with d. Residues, ends and D or L forms follow the SMILES beside them. Groups on a side chain read outwards from the residue. *: point of attachment. C20 diacid = O=C(O)CCCCCCCCCCCCCCCCCCC(=O)*; γGlu = O=C(O)[C@H](CCC(=O)[*:2])N[*:1]; αMeF = C[C@](N)(Cc1ccccc1)C(=O)O; NMeD = CN[C@@H](CC(=O)O)C(=O)O; NMeN = CN[C@@H](CC(N)=O)C(=O)O; Orn = NCCC[C@H](N)C(=O)O; CH2 = C([*:1])[*:2]
Columns and labels:
hAMY1R [1] = target: T1, hAMY1R (Homo sapiens, UniProt O60894+P30988); experiment: hAMY1R cAMP functional activity (HTRF); assay type: cell-based; conditions: ±SE; UMUC3 cells overexpressing hAMY1R; relative EC50
T1 construct: expressed in transfected cells
Experimental: The AMY1 and CT receptors are GPCRs that are functionally coupled to Gas proteins. […] In vitro activity of peptides is measured by the amount of cAMP formed in human AMY1R and CTR overexpressed cells.
Human AMY1R stable cell lines are generated by further transfecting human RAMP1-pCMVpuroPB (T14213) into UMUC3 hCTR clone cells. After selection, the mRNA levels human RAMP1 from different clones are measured to confirm the expression of human AMY1R.
hAMY1R cells are cultured in MEM 1× (Corning) supplemented with 10% FBS, 1% antibiotic/antimycotic solution, 1 mM sodium pyruvate, 1×MEM NEAA, 1× GlutaMAX-I, 200 μg/mL hygromycin B, and 0.4 μg/mL puromycin. The hCTR cells are cultured in the same medium lacking the puromycin. Cultured cells are grown to 70% confluency and then incubated overnight with fresh medium.
Peptides diluted in DMSO are added (200 nL/well) in a 1:3 dilution series using ECHO acoustic liquid handler (Beckman). Cultured cells are detached with TrypLE Express (Gibco), resuspended in assay buffer, and 10 μL containing 1200 cells/well (hCTR) or 1500 cells/well (hAMY1R) are dispensed into each well. The plates are incubated at room temperature for 1 hour.
The amount of intracellular cAMP is quantitated using HTRF technology (Homogeneous Time Resolved Fluorescence; Cisbio) as per vendor instructions. Briefly, 10 μL cAMP-d2 conjugate and 10 μL anti-cAMP-cryptate conjugate in lysis buffer are incubated with the treated cells at room temperature for 60 min. […] The raw data are converted to cAMP amount (pmol/well) using a cAMP standard curve generated for each experiment.

hAMY1R [2] = target: T1, hAMY1R; experiment: hAMY1R competitive radioligand binding filter assay (125I-rAMY); conditions: ± SE; membranes of hAMY1R overexpressing cells
Experimental: The equilibrium dissociation constants (Kd) for the various receptor/radioligand interactions are determined from saturation binding analysis using the same reagents and buffers as described below for compound testing.
The receptor binding affinity (Ki) of rAMY, hCT, and hAMY agonist peptides are determined from a competitive radioligand binding filter assay. The assay buffer consists of (in mM) 50 HEPES, pH 7.1, 5 MgCl2, 5 KCl, 0.2% (w/v) bacitracin, 0.003% (w/v) saponin and is used to dilute radioligand and membrane preparation. Binding reactions are carried out in 0.1 mL total reaction volume in a polystyrene 96 deep-well assay block. […] Test compounds and non-specific binding (NSB—defined as 300 nM rAMY) are added to aliquots of radioactivity buffer. […] The binding reaction is initiated by the addition of 0.05 mL of 200 μg/mL hAMY1R diluted in assay buffer to the radioactivity. Assay blocks are gently vortexed, sealed with parafilm, and incubated at RT for approximately 20 hours. […] At the end of the incubation, bound ligand is separated from free by addition of an ice cold quench buffer consisting of 100 mM NaCl, 50 mM TRIS-HCl pH 7.1 and immediately collected over the filter mat by vacuum filtration with a TomTec 96 well filter harvester using the following filter protocol (Dry time, 7; Cycle 3 repeat, 0; Wash Time, 1; Soak Time, 1; 1st Aspirate Time, 4; Wash/Aspirate Time, 7; 2nd Aspirate, 4; air pressure 2 PSI).

human dendritic cells = assay type: cell-based
Experimental: MAPPS profiles the MHC-II presented peptides on human dendritic cells treated with tested molecules. CD14+ cells, isolated from the PBMCs of normal human donors, are cultured and differentiated into immature DCs by incubation with IL-4 and GM-CSF. On day 4, culture media is replaced with fresh media containing tested molecules. On day 5, LPS is added to transform the cells into mature DCs. On day 6, cells are lysed in RIPA buffer with protease inhibitors. Immunoprecipitation of MHC-II complexes are performed using biotinylated anti-MHC-II antibody coupled to streptavidin beads. The bound complex is eluted and filtered. The isolated MHC-II peptides are analyzed by a mass spectrometer. Peptide identifications are generated by an internal proteomics pipeline using search algorithms with no enzyme and a bovine/human database with test sequences appended to the database. A KNIME workflow is used to process the identification files from the samples. Peptides identified from the test articles are aligned against the parent sequence of the test molecule. The output is used to determine the percentage of donors displaying MHC-II peptides from regions of the test molecule. Compound II, Compound IV, Compound VI, Compound VIII, a compound representative of U.S. Pat. No. 9,023,789 (hereinafter “Compound '789”), and Pramlintide are tested in the MAPPs assay.

CD4+ T cells = experiment: T cell proliferation assay; conditions: 7-10 donors with diverse MHC
Experimental: This assay assesses the ability of tested antibodies or tested MAPPS peptides to activate CD4+ T cells by inducing cellular proliferation. CD8+ T cell depleted PBMC's are prepared and labeled with CFSE. Each sample is tested with media control, keyhole limpet haemocyanin (KLH; positive clinical benchmark control), tested antibodies, or tested MAPPS peptides. Cultures are incubated for 7 days. On day 7, samples are analyzed by flow cytometry.

T1 sequence (P30988 25-474): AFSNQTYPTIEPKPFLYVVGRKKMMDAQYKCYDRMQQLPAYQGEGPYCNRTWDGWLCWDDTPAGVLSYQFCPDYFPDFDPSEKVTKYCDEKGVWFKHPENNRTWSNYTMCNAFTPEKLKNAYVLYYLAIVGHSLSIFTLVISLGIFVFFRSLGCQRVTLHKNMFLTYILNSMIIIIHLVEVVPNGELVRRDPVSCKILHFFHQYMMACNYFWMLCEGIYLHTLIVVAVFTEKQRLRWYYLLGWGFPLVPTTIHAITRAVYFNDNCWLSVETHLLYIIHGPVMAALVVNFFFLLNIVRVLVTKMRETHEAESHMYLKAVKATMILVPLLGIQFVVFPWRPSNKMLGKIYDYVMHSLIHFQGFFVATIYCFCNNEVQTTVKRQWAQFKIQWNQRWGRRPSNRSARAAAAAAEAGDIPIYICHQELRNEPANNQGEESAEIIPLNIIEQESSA
T1 sequence (O60894 27-148 partner): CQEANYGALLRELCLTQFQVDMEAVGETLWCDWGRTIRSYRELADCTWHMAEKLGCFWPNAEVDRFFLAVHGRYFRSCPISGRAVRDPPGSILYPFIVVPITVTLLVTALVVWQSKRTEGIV

SMILES	EC50 (hAMY1R [1]) [pM]	Ki (hAMY1R [2]) [pM]	MAPPS Assay donors displayed peptides (human dendritic cells)	MAPPS Assay immunogenicity risk (human dendritic cells)	peptides displayed on MHC-II complexes (human dendritic cells)	T Cell Proliferation Assay: protein, immunogenicity risk (CD4+ T cells)	T Cell Proliferation Assay: protein, positive donors (CD4+ T cells)
CC(C)C[C@H](NC(=O)[C@H](CCCN)NC(=O)CNC(=O)[C@@H](NC(=O)[C@H](C)NC(=O)[C@@H]1CSCSC[C@H](NC(=O)CC[C@H](N)C(=O)O)C(=O)N[C@@H](CC(N)=O)C(=O)N[C@@H]([C@@H](C)O)C(=O)N[C@@H](C)C(=O)N[C@@H]([C@@H](C)O)C(=O)N1)[C@@H](C)O)C(=O)N[C@@H](C)C(=O)N[C@@H](CCC(=O)O)C(=O)N[C@@](C)(Cc1ccccc1)C(=O)N[C@@H](CC(C)C)C(=O)N[C@H](C(=O)N[C@@H](CCCNC(=N)N)C(=O)N[C@@H](CO)C(=O)N[C@@H](CO)C(=O)N[C@@H](CC(N)=O)C(=O)N(C)[C@@H](CC(N)=O)C(=O)N[C@@H](Cc1ccccc1)C(=O)NCC(=O)N1CCC[C@H]1C(=O)N[C@@H](CCCCNC(=O)CC[C@H](NC(=O)CC[C@H](NC(=O)CCCCCCCCCCCCCCCCCCC(=O)O)C(=O)O)C(=O)O)C(=O)N[C@@H](CC(C)C)C(=O)N1CCC[C@H]1C(=O)N1CCC[C@H]1C(=O)N[C@H](C(=O)N[C@@H](CCC(=O)O)C(=O)N[C@H](C(=O)NCC(=O)N[C@@H](CO)C(=O)N[C@@H](CC(N)=O)C(=O)N[C@H](C(=O)N[C@@H](Cc1ccc(O)cc1)C(N)=O)[C@@H](C)O)C(C)C)[C@@H](C)O)C(C)C [Compound II] (γGlu-CNTATCATG[Orn]LAE[αMeF]LVRSSN[NMeN]FGPK([γGlu-γGlu-C20 diacid])LPPTEVGSNTY-NH2; linker 1-6 via CH2)	75 ± 12	17 ± 6	no peptides	Low Risk	no peptides displayed on MHC-II complexes	Low Risk	(0/9
CC(C)C[C@H](NC(=O)[C@H](CCCN)NC(=O)CNC(=O)[C@@H](NC(=O)[C@H](C)NC(=O)[C@@H]1CSCSC[C@H](NC(=O)CC[C@H](N)C(=O)O)C(=O)N[C@@H](CC(N)=O)C(=O)N[C@@H]([C@@H](C)O)C(=O)N[C@@H](C)C(=O)N[C@@H]([C@@H](C)O)C(=O)N1)[C@@H](C)O)C(=O)N[C@@H](C)C(=O)N[C@@H](CCC(=O)O)C(=O)N[C@@](C)(Cc1ccccc1)C(=O)N[C@@H](CC(C)C)C(=O)N[C@H](C(=O)N[C@@H](CCCNC(=N)N)C(=O)N[C@@H](CO)C(=O)N[C@@H](CO)C(=O)N[C@@H](CC(N)=O)C(=O)N(C)[C@@H](CC(=O)O)C(=O)N[C@@H](Cc1ccccc1)C(=O)NCC(=O)N1CCC[C@H]1C(=O)N[C@@H](CCCCNC(=O)CC[C@H](NC(=O)CC[C@H](NC(=O)CCCCCCCCCCCCCCCCCCC(=O)O)C(=O)O)C(=O)O)C(=O)N[C@@H](CC(C)C)C(=O)N1CCC[C@H]1C(=O)N1CCC[C@H]1C(=O)N[C@H](C(=O)N[C@@H](CCC(=O)O)C(=O)N[C@H](C(=O)NCC(=O)N[C@@H](CO)C(=O)N[C@@H](CC(N)=O)C(=O)N[C@H](C(=O)N[C@@H](Cc1ccc(O)cc1)C(N)=O)[C@@H](C)O)C(C)C)[C@@H](C)O)C(C)C [Compound IV, γE-CNTATCATG-Orn-LAE-αMeF-LVRSSN-NMeD-FGPKLPPTEVGSNTY-NH2] (γGlu-CNTATCATG[Orn]LAE[αMeF]LVRSSN[NMeD]FGPK([γGlu-γGlu-C20 diacid])LPPTEVGSNTY-NH2; linker 1-6 via CH2)	107 ± 16	29.6 ± 9.9	no peptides	Low Risk	no peptides displayed on MHC-II complexes	Low Risk	(0/9

From patent US12551532B2, “Long-acting amylin receptor agonists and uses thereof” (Eli Lilly and Company, priority 2021, dated 2026)
